Measured values as given in the supplement of paper PMC10307832.

Experiments:
Test in all cases: relative viability (nuclei count vs DMSO), 5 days (fraction); higher = more cells survive
[1] = compound: C1CC(C1)(C(=O)O)C(=O)O.[NH2-].[NH2-].[Pt+2] [Carboplatin] + Cc1cc(Nc2cc(N3CCN(C)CC3)nc(Sc3ccc(NC(=O)C4CC4)cc3)n2)n[nH]1 [Tozasertib] (partner 0.1 µM)
Summary of the method: (§1)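 Relative viability divides the nuclei count in treated wells by that in vehicle wells. Lung cancer cell lines were seeded in 1536-well plates, dosed by pin tool the next day, and fixed and stained after 5 days in one step with final 0.05% Triton X-100, 1% formaldehyde and 1 ug/ml Hoechst. Dosing was a single drug or a fixed anchor-drug dose plus five library-drug doses (not always all listed) in √10 steps, and values are medians of duplicate plates imaged at 4×.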

[2] = compound: CC[C@H](C)N1C=C(C2=C(C=C(C=C21)C3=CN=C(C=C3)N4CCNCC4)C(=O)NCC5=C(C=C(NC5=O)C)C)C [GSK126] + CC(=O)Nc1cccc(-n2c(=O)n(C3CC3)c(=O)c3c(Nc4ccc(I)cc4F)n(C)c(=O)c(C)c32)c1 [Trametinib] (partner 0.02 µM)
Summary of the method: as §1

[3] = compound: CC[C@H](C)N1C=C(C2=C(C=C(C=C21)C3=CN=C(C=C3)N4CCNCC4)C(=O)NCC5=C(C=C(NC5=O)C)C)C [GSK126] + Nc1nc2[nH]cc(CCc3ccc(C(=O)N[C@@H](CCC(=O)O)C(=O)O)cc3)c2c(=O)[nH]1 [Pemetrexed] (partner 0.2 µM)
Summary of the method: as §1

[4] = compound: NS(=O)(=O)OC[C@@H]1C[C@@H](n2ccc3c(N[C@H]4CCc5ccccc54)ncnc32)C[C@@H]1O [MLN4924] + Cc1nc(Nc2ncc(C(=O)Nc3c(C)cccc3Cl)s2)cc(N2CCN(CCO)CC2)n1 [Dasatinib] (partner 0.075 µM)
Summary of the method: as §1

Row | Cell Line | relative viability ([1]; first compound 0.08 µM) | relative viability ([1]; first compound 0.253 µM) | relative viability ([1]; first compound 0.8 µM) | relative viability ([1]; first compound 2.53 µM) | relative viability ([1]; first compound 8 µM) | relative viability ([2]; first compound 0.08 µM) | relative viability ([2]; first compound 0.253 µM) | relative viability ([2]; first compound 0.8 µM) | relative viability ([2]; first compound 2.53 µM) | relative viability ([2]; first compound 8 µM) | relative viability ([3]; first compound 0.08 µM) | relative viability ([3]; first compound 0.253 µM) | relative viability ([3]; first compound 0.8 µM) | relative viability ([3]; first compound 2.53 µM) | relative viability ([3]; first compound 8 µM) | relative viability ([4]; first compound 0.04 µM) | relative viability ([4]; first compound 0.1265 µM) | relative viability ([4]; first compound 0.4 µM) | relative viability ([4]; first compound 1.265 µM) | relative viability ([4]; first compound 4 µM)
1 | LU99A | 0.282 | 0.279 | 0.248 | 0.258 | 0.212 | 0.631 | 0.519 | 0.547 | 0.552 | 0.546 | 0.181 | 0.165 | 0.185 | 0.179 | 0.155 | 0.507 | 0.485 | 0.321 | 0.132 | 0.16
2 | LXF-289 | 0.199 | 0.209 | 0.22 | 0.218 | 0.177 | 0.66 | 0.665 | 0.7 | 0.611 | 0.693 | 0.894 | 0.945 | 0.933 | 0.908 | 0.884 | 0.215 | 0.203 | 0.251 | 0.0849 | 0.0735
3 | NCI-H23 | 0.4 | 0.315 | 0.385 | 0.356 | 0.317 | 0.434 | 0.378 | 0.407 | 0.551 | 0.391 | 0.773 | 0.735 | 0.687 | 0.706 | 0.631 | 0.722 | 0.785 | 0.681 | 0.335 | 0.208
4 | NCI-H322M | 0.534 | 0.532 | 0.56 | 0.481 | 0.479 | 0.499 | 0.478 | 0.482 | 0.548 | 0.552 | 0.543 | 0.621 | 0.615 | 0.648 | 0.641 | 0.311 | 0.655 | 0.693 | 0.27 | 0.289
5 | NCI-H358 | 0.113 | 0.101 | 0.107 | 0.108 | 0.114 | 0.15 | 0.141 | 0.158 | 0.12 | 0.138 | 0.184 | 0.182 | 0.174 | 0.166 | 0.197 | 0.211 | 0.31 | 0.25 | 0.113 | 0.0832
6 | NCI-H727 | 0.572 | 0.653 | 0.54 | 0.562 | 0.624 | 0.4 | 0.4 | 0.424 | 0.39 | 0.412 | – | – | – | – | – | 0.374 | 0.404 | 0.305 | 0.293 | 0.266
7 | NCI-H1563 | – | – | – | – | – | – | – | – | – | – | 0.848 | 0.808 | 0.772 | 0.579 | 0.754 | 0.67 | 0.819 | 0.714 | 0.446 | 0.426
8 | NCI-H1623 | 0.445 | 0.446 | 0.484 | 0.449 | 0.402 | – | – | – | – | – | – | – | – | – | – | 0.626 | 0.573 | 0.341 | 0.227 | 0.183
9 | NCI-H1648 | 0.708 | 0.421 | 0.319 | – | 0.456 | 0.544 | 0.959 | 0.409 | 0.522 | 0.445 | 0.693 | 0.766 | 0.884 | 0.945 | 0.76 | – | – | – | – | –
10 | NCI-H1792 | – | – | – | – | – | 0.492 | 0.397 | 0.43 | 0.405 | 0.406 | 0.89 | 0.727 | 0.806 | 0.698 | 0.818 | 0.725 | 0.819 | 1.03 | 0.902 | 0.762
